Source: ChEMBL document CHEMBL2074182, “Influence of antipsychotic, antiemetic, and Ca(2+) channel blocker drugs on the cellular accumulation of the anticancer drug daunorubicin: P-glycoprotein modulation” (J Pharmacol Exp Ther, 2000)
Blank lines part the entries; values can stand above or below the molecule they belong to.

Legend:
Format in all cases: functional, cell-based
[1] = biological target: T1, MDR1 (P-glycoprotein, ABCB1) (Homo sapiens, UniProt P08183); assay: TP_TRANSPORTER: increase in Rhodamine 123 intracellular accumulation (R123: 150 uM, Bepridil: 5 ug/mL) in MDR1-expressing NIH3T3 cells; details: mouse, probe Rhodamine 123 (150 uM)
[2] = biological target: T2, ATP-dependent translocase ABCB1 (Homo sapiens, UniProt P08183); assay: TP_TRANSPORTER: increase in Rhodamine 123 intracellular accumulation (R123: 150 uM, Chlorpromazine: 2.5 ug/mL) in MDR1-expressing NIH3T3 cells; details: mouse
[3] = biological target: T1, MDR1 (P-glycoprotein, ABCB1); assay: TP_TRANSPORTER: increase in Rhodamine 123 intracellular accumulation (R123: 150 uM, Nicardipine: 2 ug/mL) in MDR1-expressing NIH3T3 cells; details: mouse, probe Rhodamine 123 (150 uM)
[4] = biological target: T2, ATP-dependent translocase ABCB1; assay: TP_TRANSPORTER: increase in Rhodamine 123 intracellular accumulation (R123: 150 uM, Prochloperazine: 5 ug/mL) in MDR1-expressing NIH3T3 cells; details: mouse
[5] = biological target: T2, ATP-dependent translocase ABCB1; assay: TP_TRANSPORTER: increase in Rhodamine 123 intracellular accumulation (R123: 150 uM, Promethazine: 20 ug/mL) in MDR1-expressing NIH3T3 cells; details: mouse

T2 sequence (P08183 whole entry): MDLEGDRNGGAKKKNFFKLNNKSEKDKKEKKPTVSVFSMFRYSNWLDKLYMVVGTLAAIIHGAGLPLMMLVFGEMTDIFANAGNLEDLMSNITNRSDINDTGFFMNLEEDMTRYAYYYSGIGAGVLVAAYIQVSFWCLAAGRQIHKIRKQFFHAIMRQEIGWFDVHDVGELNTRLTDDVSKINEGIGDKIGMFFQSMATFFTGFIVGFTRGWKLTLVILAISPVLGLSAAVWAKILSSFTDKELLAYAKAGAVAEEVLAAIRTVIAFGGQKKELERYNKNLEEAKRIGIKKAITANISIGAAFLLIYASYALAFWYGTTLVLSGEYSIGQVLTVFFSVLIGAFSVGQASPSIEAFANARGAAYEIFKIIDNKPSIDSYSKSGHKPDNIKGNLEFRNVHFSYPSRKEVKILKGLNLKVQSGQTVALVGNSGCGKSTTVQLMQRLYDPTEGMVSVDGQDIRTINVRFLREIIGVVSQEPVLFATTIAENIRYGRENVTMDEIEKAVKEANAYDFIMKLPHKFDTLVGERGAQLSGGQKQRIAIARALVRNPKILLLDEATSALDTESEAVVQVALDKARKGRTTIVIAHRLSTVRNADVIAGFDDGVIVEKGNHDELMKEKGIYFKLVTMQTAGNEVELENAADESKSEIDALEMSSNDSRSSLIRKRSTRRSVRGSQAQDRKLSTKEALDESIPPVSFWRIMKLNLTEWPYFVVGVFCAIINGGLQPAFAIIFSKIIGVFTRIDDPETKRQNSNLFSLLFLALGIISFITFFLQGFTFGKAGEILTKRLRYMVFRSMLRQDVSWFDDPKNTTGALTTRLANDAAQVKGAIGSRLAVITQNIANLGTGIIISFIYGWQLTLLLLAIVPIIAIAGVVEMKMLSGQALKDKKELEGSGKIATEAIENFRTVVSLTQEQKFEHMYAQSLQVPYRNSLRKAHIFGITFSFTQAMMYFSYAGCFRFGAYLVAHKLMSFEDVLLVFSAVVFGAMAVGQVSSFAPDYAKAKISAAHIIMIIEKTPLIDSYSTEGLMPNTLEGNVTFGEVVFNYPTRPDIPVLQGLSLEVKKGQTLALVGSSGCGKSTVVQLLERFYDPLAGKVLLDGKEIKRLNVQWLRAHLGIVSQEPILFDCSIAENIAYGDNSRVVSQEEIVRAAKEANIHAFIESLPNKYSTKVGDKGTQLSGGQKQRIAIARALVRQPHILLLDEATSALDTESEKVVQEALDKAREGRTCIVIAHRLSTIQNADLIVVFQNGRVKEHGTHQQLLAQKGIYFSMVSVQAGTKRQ
T1 sequence (P08183 whole entry): as above

- inhibition at 5 ug/mL [1]: 100%
SMILES: CC(C)COCC(CN(Cc1ccccc1)c1ccccc1)N1CCCC1 (stereo not given) [BEPRIDIL]

SMILES: CCCNC(=O)NS(=O)(=O)c1ccc(Cl)cc1 [CHLORPROPAMIDE]
- Inhibition [2]: inhibitor [at a rough estimate 90 % inhibition]

- inhibition at 2 ug/mL [3]: 100%
SMILES: COC(=O)C1=C(C)NC(C)=C(C(=O)OCCN(C)Cc2ccccc2)C1c1cccc([N+](=O)[O-])c1 (stereo not given) [NICARDIPINE]

SMILES: CN1CCN(CCCN2c3ccccc3Sc3ccc(Cl)cc32)CC1 [PROCHLORPERAZINE]
- Inhibition [4]: inhibitor [(at a rough estimate) 80 % inhibition]

SMILES: CC(CN1c2ccccc2Sc2ccccc21)N(C)C (stereo not given) [PROMETHAZINE]
- Inhibition [5]: inhibitor [(at a rough estimate) 80 % inhibition]
